Six molecules from publication PMC8246084, “Mapping the binding site topology of amyloid protein aggregates using multivalent ligands” (Chemical Science, 2021) can be followed below.

Each structure is given as a SMILES string. Like-named read-outs stand apart in the source and are kept apart here. A value given as a limit tells only on which side of the number the result lay.

Data set [1] addresses Tau-positive neuronal inclusions (Homo sapiens, UniProt P10636). The data set is described as follows: Staining of brain sections from patients with Alzheimer's disease (tau). As to conditions: compound 1 μM. The text has this: (§1) Brain sections from patients with Parkinson's disease were labelled with antibodies against α-synuclein (LB509 and pS129) and stained with compounds 13, 14 and 15 (Fig. 8a). LB509/pS129-positive Lewy bodies, that were identified as cytoplasmic spheres, were stained by both compounds 14 and 15 but not by compound 13. […] To assess any potential cross-reactivity with other pathological amyloid aggregates, such as Aβ plaques and neurofibrillary tangles of tau, brain sections from patients with Alzheimer's disease were labelled with antibody against tau (dako tau) and Aβ (4G8) and stained with compounds 13, 14 and 15 (Fig. 8b).
(§2) Fig. 8 Fluorescence microscope images of human brain sections. (a) Sections from patients with Parkinson's disease labelled with antibodies against α-synuclein (LB509 and pS129) and stained with compounds 13, 14 and 15 (100 nM). (b) Sections from patients with Alzheimer's disease labelled with antibodies against tau (dako tau) and Aβ (4G8) and stained with compounds 13, 14 and 15 (1 μM). Scale bar 20 μm.
(§3) Frozen brain tissues from neuropathologically confirmed cases of PD and AD were obtained from the Cambridge Brain Bank (Table S3). Tissue blocks were post-fixed in 4% paraformaldehyde and cryoprotected before snap freezing in OCT. Brain sections (15 μm) were generated using a cryostat (Bright OTF5000) for immunohistochemistry and compound staining.
(§4) Table S3. Details of human tissue used (SN substantia nigra, FL frontal lobe) Case no Diagnosis Braak Stage Brain region Age
(§5) 9. Immunohistochemistry and Staining […]
(§6) A11011, ThermoFisher) for PD sections or a mixture of goat anti-mouse ALEXA-647 (1:1000, A21235, ThermoFisher) and goat anti-rabbit ALEXA-546 (1:1000, A11035, ThermoFisher) for AD sections. […] Fluorescence images were taken using a Leica DMI4000B.

In a further data set the target is α-synuclein fibrils (Homo sapiens, UniProt P37840). The data set can be described thus: Fluorescence titration with α-synuclein fibrils. In kind it is binding.
The target of the next data set is T1, tau fibrils (htau 0N4R) (Homo sapiens, UniProt P10636).
T1 construct: purchased InVivo BioTech Services GmbH, Germany
T1 sequence (P10636 1-383 isoform P10636-6): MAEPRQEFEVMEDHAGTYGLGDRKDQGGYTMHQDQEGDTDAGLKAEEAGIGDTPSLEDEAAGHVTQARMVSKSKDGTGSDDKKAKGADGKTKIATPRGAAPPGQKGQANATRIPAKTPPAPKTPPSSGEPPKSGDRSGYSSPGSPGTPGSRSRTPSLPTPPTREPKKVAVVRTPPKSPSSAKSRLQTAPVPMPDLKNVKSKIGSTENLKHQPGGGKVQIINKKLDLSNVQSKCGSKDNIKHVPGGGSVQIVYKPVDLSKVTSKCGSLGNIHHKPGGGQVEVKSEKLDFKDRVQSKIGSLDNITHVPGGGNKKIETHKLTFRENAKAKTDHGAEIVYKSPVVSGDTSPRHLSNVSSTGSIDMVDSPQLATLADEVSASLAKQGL
The data set is described as follows: Fluorescence titration with tau fibrils. As to conditions: monodisperse BTA dimers; 0.5 μM tau; PBS 1× pH 7.4, 298 K; errors at 95% confidence limit; read-out: Dissociation constant (Kd) for binding to tau fibrils.

The test system of data set [2] is 4G8-positive extracellular plaques (Aβ). The data set can be described thus: Staining of brain sections from patients with Alzheimer's disease (Aβ). As to conditions: compound 1 μM. Also noted: species or system human.
Description: as §1, §2, §3, §4, §5, §6

In data set [3] the target is T2, α-synuclein aggregates (LB509/pS129-positive Lewy bodies) (Homo sapiens, UniProt P37840).
T2 construct: tissue Cambridge Brain Bank; host or cells: post-mortem human brain sections, Parkinson's disease, substantia nigra
The data set can be described thus: Staining of brain sections from patients with Parkinson's disease. Particulars: compound 100 nM.
Description: as §1, §2, §3, §4
9. Immunohistochemistry and Staining
Fixed brain sections were washed with 70% EtOH and allowed to air dry for 20 min before incubation overnight at 4°C with either a mixture of monoclonal antibodies for α-syn (1:500, ab27766, Abcam) and pS129 α-syn (1:500, ab51253, Abcam) for PD sections or a mixture of monoclonal antibody for Aβ (1:500, 800701, Biolegend) and polyclonal antibody for human tau (1:500, A002401-2, Agilent) for AD sections. Sections were washed with PBS 3 x 15 min and incubated for 3 h at room temperature in secondary antibody, either a mixture of goat anti- […]
A11011, ThermoFisher) for PD sections or a mixture of goat anti-mouse ALEXA-647 (1:1000, A21235, ThermoFisher) and goat anti-rabbit ALEXA-546 (1:1000, A11035, ThermoFisher) for AD sections. Compounds 13, 14 and 15 were also diluted in the secondary antibody preparation at stated concentrations. Sections were washed with PBS 3 x 10 min and once with 70% EtOH 5 min before blocking autofluorescence with Autofluorescence Inhibitor (2160, Millipore) for 5 min. After 3 x 1 min washes in 70% EtOH sections were mounted using Fluorosave mounting medium (345789, Millipore). Fluorescence images were taken using a Leica DMI4000B.

A further data set has as its target T3, Aβ42 fibrils (Homo sapiens, UniProt P05067).
T3 construct: monomeric amyloid-b1-42; purchased Stratech A-1167-2-RPE
The data set can be described thus: Fluorescence titration with Aβ42 fibrils. As to conditions: monodisperse BTA dimers; 0.5 μM Aβ42; PBS 1× pH 7.4, 298 K; errors at 95% confidence limit; read-out: Dissociation constant (Kd) for binding to Aβ42 fibrils.

Data set [4] deals with α-synuclein sonicated fibrils (Homo sapiens, UniProt P37840). The data set is described as follows: TIRFM imaging of α-synuclein aggregates in vitro. Particulars: nanomolar 15 (4 nM, 200 nM) vs 5 μM ThT; fibrils from 200 nM monomer. The text has this:
The highest affinity BTA dimers were investigated as fluorescence imaging agents for protein aggregates. Fig. 7 compares in vitro imaging of α-synuclein aggregates with 15 and with thioflavin T (ThT). ThT is widely used to image aggregates, because it has a very low fluorescence emission intensity in the free state, and there is a large increase in fluorescence emission on binding to protein aggregates. The corresponding change in fluorescence emission intensity is much lower for the BTA dimers described here (see Fig. 3).
Fig. 7 TIRFM images of α-synuclein sonicated fibrils in the presence of (a) 4 nM 15, (b) 200 nM 15 and (c) 5 μM ThT. Fibrils were obtained from 200 nM samples of the monomer. All images have the same contrast. Scale bar 10 μm.
7. Total internal reflection fluorescence microscopy (TIRFM) imaging
Imaging was performed using a homebuilt total internal reflection fluorescence microscope as reported previously.7 Briefly, this imaging mode restricts detectable axial fluorescence signal to within ~200 nm from the glass-water interface. […] Fluorescence was collected by the same objective and was separated from the returning TIR beam by a dichroic (Di01-R405/488/561/635, Semrock), and passed through […]
respectively). The images were recorded on an EMCCD camera (Evolve 512, Photometrics) operating in frame transfer mode (EMGain of 11.5 e−/ADU and 250 ADU/photon). […]

Data set [5] in a line: Solubility for fluorescence titrations in PBS. As to conditions: PBS 1× titration conditions. In kind it is physicochemical. The text has this:
Eqn (1)–(3) can be fit to the two sets of titration data in Fig. 3 to determine the dissociation constant Kd and brightness (ef) of the free and bound BTA dimer, and in the case of high affinity binding, the concentration of binding sites on the protein fibrils. In all cases, the titration data fit well to a 1 : 1 binding isotherm, and the lines shown in Fig. 3 are the calculated lines of best fit.
Fluorescent titrations with the polydisperse mixtures of BTA dimers were used to measure the apparent binding affinities for α-synuclein fibrils in the same way as described above for the monodisperse BTA dimers. The titration data fit well to a 1 : 1 binding isotherm allowing for the fluorescence emission from the free dye as described above, and the results are summarised in Table 2. […] The dissociation constants for the other polydisperse BTA dimers are in the same range as those measured for the monodisperse analogues. […]
5. Fluorescence titrations […]
The fluorescence spectra were analysed using a Microsoft Excel spreadsheet to fit the changes in fluorescence intensity at fixed wavelengths to a 1:1 binding isotherm by optimizing the association constant, the optical brightness of the free and bound guest, and the concentration of protein binding sites using purpose written VBA macros. […]
Figure S25. Fluorescence titration of compound 14. […]
Figure S26. Fluorescence titration of compound 15. […]

[6] abbreviates: monodisperse BTA dimers, 1 μM α-synuclein, PBS 1× pH 7.4, 298 K, errors at 95% confidence limit, read-out: Dissociation constant (Kd) for binding to α-synuclein fibrils.

Chain of Tau-positive neuronal inclusions (P10636 623-708 limits assumed): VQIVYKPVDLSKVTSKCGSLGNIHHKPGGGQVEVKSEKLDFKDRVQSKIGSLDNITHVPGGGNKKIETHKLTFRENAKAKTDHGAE
T3 sequence (P05067 672-713 limits assumed): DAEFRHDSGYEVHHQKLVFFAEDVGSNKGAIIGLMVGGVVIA

With `CN(C)c1ccc(-c2nc3ccc(OCCOCCOCCOCCOCCOCCOCCOCCOCCOc4ccc5nc(-c6ccc(N(C)C)cc6)sc5c4)cc3s2)cc1` [Compound 15], in data set [1], the “Staining of tau-positive neuronal inclusions” value is on record as “no staining”. The Kd at α-synuclein fibrils (setting [6]) worked out at 2.7 ± 1.5 nM; at tau fibrils (htau 0N4R) it was 1000 ± 300 nM; at Aβ42 fibrils it was 78 ± 26 nM. The “Staining of 4G8-positive extracellular plaques” value in data set [2] is on record as “no staining”. In data set [3], the “Staining of LB509/pS129-positive Lewy bodies” value is “stained”. Also, the “Image brightness compared with ThT” value in data set [4] is “brighter”.

Consider `CN(C)c1ccc(-c2nc3ccc(OCCOCCOCCOCCOCCOCCOc4ccc5nc(-c6ccc(N(C)C)cc6)sc5c4)cc3s2)cc1` [Compound 14], for which the “Staining of tau-positive neuronal inclusions” value in data set [1] is “no staining”. The results for the Kd at α-synuclein fibrils (setting [6]), at tau fibrils (htau 0N4R) and on Aβ42 fibrils were 190 ± 140 nM, 900 ± 700 nM and 1400 ± 1600 nM, respectively. Moreover, the “Staining of 4G8-positive extracellular plaques” value in data set [2] is on record as “no staining”. In addition, the “Co-localisation with α-synuclein antibodies elsewhere in the brain section” value in data set [3] is recorded as “significant amounts of co-localisation”. Besides, the “Staining of LB509/pS129-positive Lewy bodies” value in data set [3] is listed as “stained”.

For `CN(C)c1ccc(-c2nc3ccc(OCCOCCOCCOc4ccc5nc(-c6ccc(N(C)C)cc6)sc5c4)cc3s2)cc1` [Compound 13], the “Staining of tau-positive neuronal inclusions” value in data set [1] is reported as “no staining”. In data set [2], the “Staining of 4G8-positive extracellular plaques” value is listed as “no staining”. In addition, in data set [3], the “Staining of LB509/pS129-positive Lewy bodies” value is on record as “not”. For the same molecule, the “Solubility (sufficient to determine accurate dissociation constants)” value in data set [5] is “not sufficiently soluble”.

Take `CN(C)c1ccc(-c2nc3ccc(OCCOCCOCCOCCOCCOCCOCCOCCOCCOCCOCCOCCOCCOCCOCCOc4ccc5nc(-c6ccc(N(C)C)cc6)sc5c4)cc3s2)cc1` [Compound 16]: the values for the Kd at α-synuclein fibrils (setting [6]), on tau fibrils (htau 0N4R) and on Aβ42 fibrils were 35 ± 15 nM, 110 ± 57 nM and 7 ± 5 nM, respectively.

For `CN(C)c1ccc(-c2nc3ccc(OCCOCCOCCOCCOCCOCCOCCOCCOCCOCCOCCOCCOCCOCCOCCOCCOCCOCCOCCOCCOCCOc4ccc5nc(-c6ccc(N(C)C)cc6)sc5c4)cc3s2)cc1` [Compound 17], the Kd is 210 ± 180 nM at α-synuclein fibrils (setting [6]), 280 ± 48 nM on tau fibrils (htau 0N4R) and 320 ± 75 nM on Aβ42 fibrils.

Turning to `COCCOCCOCCOc1ccc2nc(-c3ccc(N(C)C)cc3)sc2c1` [monomeric BTA analogue], on α-synuclein fibrils (monomeric BTA analogue, fluorescence titration, read-out: Kd for α-synuclein (binding affinity too low to measure)), the Kd is above 1000 nM.
